Results as given in ChEMBL document CHEMBL1649437, “Inhaled voriconazole for prevention of invasive pulmonary aspergillosis” (Antimicrob Agents Chemother, 2009).
Activity calls are given as the source filed them. The calls are words filed in the database; no cut-off is given here.

Assays:
[1] = system: Aspergillus fumigatus; test: Antifungal activity against Aspergillus fumigatus isolate Af293 infected in immunosuppressed ICR mouse assessed as decrease in invasive lung disease at 6.25 mg/ml twice daily administered 2 days prior to infection via nebulization measured on day 8 by light microscopic analysis; assay type: functional, organism-based
[2] = system: Aspergillus fumigatus; test: Antifungal activity against Aspergillus fumigatus isolate Af293 infected in immunosuppressed ICR mouse assessed as increased survival of mouse at 1 mg/kg, ip once daily until day 7; assay type: functional; conditions: route intraperitoneal
[3] = system: Aspergillus fumigatus; test: Antifungal activity against Aspergillus fumigatus isolate Af293 infected in immunosuppressed ICR mouse assessed as pulmonary fungal burden at 1 mg/kg, ip once daily administered 1 day post infection measured on day 8 by real-time quantitative PCR; assay type: functional; conditions: route intraperitoneal
[4] = system: Aspergillus fumigatus; test: Antifungal activity against Aspergillus fumigatus isolate Af293 infected in immunosuppressed ICR mouse assessed as assessed as decrease in invasive lung disease at 1 mg/kg, ip once daily measured on day 12 by light microscopic analysis; assay type: functional, organism-based; design: dose 1 mg/kg
[5] = system: Aspergillus fumigatus; test: Antifungal activity against Aspergillus fumigatus isolate Af293 infected in immunosuppressed ICR mouse assessed as assessed as decrease in invasive lung disease at 1 mg/kg, ip once daily measured on day 8 by light microscopic analysis; assay type: functional, organism-based; design: dose 1 mg/kg
[6] = system: Aspergillus fumigatus; test: Antifungal activity against Aspergillus fumigatus isolate Af293 infected in immunosuppressed ICR mouse assessed as decreased lung vascular damage at 1 mg/kg, ip once daily measured on day 12 by histopathological analysis; assay type: functional, organism-based; design: dose 1 mg/kg
[7] = system: Aspergillus fumigatus; test: Antifungal activity against Aspergillus fumigatus isolate Af293 infected in immunosuppressed ICR mouse assessed as median survival time at 1 mg/kg, ip once daily; assay type: functional; conditions: route intraperitoneal
[8] = system: Aspergillus fumigatus; test: Antifungal activity against Aspergillus fumigatus isolate Af293 infected in immunosuppressed ICR mouse assessed as conidial equivalents per gram of tissue at 1 mg/kg, ip once daily administered 1 day post infection measured on day 8 by real-time quantitative PCR; assay type: functional; conditions: route intraperitoneal
[9] = system: Aspergillus fumigatus; test: Antifungal activity against Aspergillus fumigatus isolate Af293 infected in immunosuppressed ICR mouse assessed as increased survival of mouse at 1 mg/kg, ip once daily until day 12; assay type: functional; conditions: route intraperitoneal
[10] = system: Aspergillus fumigatus; test: Antifungal activity against Aspergillus fumigatus isolate Af293 infected in immunosuppressed ICR mouse assessed as decreased lung vascular damage at 1 mg/kg, ip once daily measured on day 8 by histopathological analysis; assay type: functional, organism-based; design: dose 1 mg/kg
[11] = system: Aspergillus fumigatus; test: Antifungal activity against Aspergillus fumigatus isolate Af293 infected in immunosuppressed ICR mouse assessed as median survival time at 3 mg/kg, ip once daily; assay type: functional; conditions: route intraperitoneal
[12] = system: Aspergillus fumigatus; test: Antifungal activity against Aspergillus fumigatus isolate Af293 infected in immunosuppressed ICR mouse assessed as median survival time at 6.25 mg/ml twice daily 2 days prior to infection via nebulization; assay type: functional
[13] = Cmax in mouse serum; assay type: ADME, organism-based
[14] = Cmax in mouse lung; assay type: ADME, organism-based
[15] = system: Aspergillus fumigatus; test: Antifungal activity against Aspergillus fumigatus isolate Af293 infected in immunosuppressed ICR mouse assessed as increased survival of mouse at 6.25 mg/ml twice daily administered 2 days prior to infection via nebulization until day 7 (Rvb= 25%); assay type: functional
[16] = system: Aspergillus fumigatus; test: Antifungal activity against Aspergillus fumigatus isolate Af293 infected in immunosuppressed ICR mouse assessed as pulmonary fungal burden at 6.25 mg/ml twice daily administered 2 days prior to infection via nebulization measured on day 8 by real-time quantitative PCR; assay type: functional
[17] = system: Aspergillus fumigatus; test: Antifungal activity against Aspergillus fumigatus isolate Af293 infected in immunosuppressed ICR mouse assessed as decrease in invasive lung disease at 6.25 mg/ml twice daily administered 2 days prior to infection via nebulization measured on day 12 by light microscopic analysis; assay type: functional, organism-based
[18] = system: Aspergillus fumigatus; test: Antifungal activity against Aspergillus fumigatus isolate Af293 infected in immunosuppressed ICR mouse assessed as decreased lung vascular damage at 6.25 mg/ml twice daily administered 2 days prior to infection via nebulization measured on day 12 by histopathological analysis; assay type: functional, organism-based
[19] = system: Aspergillus fumigatus; test: Antifungal activity against Aspergillus fumigatus isolate Af293 infected in immunosuppressed ICR mouse assessed as increased survival of mouse at 6.25 mg/ml twice daily administered 2 days prior to infection via nebulization until day 12 (Rvb= 17%); assay type: functional
[20] = system: Mus musculus; test: Toxicity in immunosuppressed ICR mouse assessed as inflammatory changes at 6.25 mg/ml twice daily administered 2 days prior to infection via nebulization; assay type: organism-based; conditions: in vivo, inhaled_or_intranasal, 48 h
[21] = system: Aspergillus fumigatus; test: Antifungal activity against Aspergillus fumigatus isolate Af293 infected in immunosuppressed ICR mouse assessed as decreased lung vascular damage at 6.25 mg/ml twice daily administered 2 days prior to infection via nebulization measured on day 8 by histopathological analysis; assay type: functional, organism-based
[22] = system: Aspergillus fumigatus; test: Antifungal activity against Aspergillus fumigatus isolate Af293 infected in immunosuppressed ICR mouse assessed as conidial equivalents per gram of tissue at 6.25 mg/ml twice daily administered 2 days prior to infection via nebulization measured on day 8 by real-time quantitative PCR; assay type: functional
[23] = system: Mus musculus; test: Toxicity in immunosuppressed ICR mouse assessed as lung injury at 6.25 mg/ml twice daily administered 2 days prior to infection via nebulization; assay type: organism-based; conditions: in vivo, inhaled_or_intranasal, 48 h

For `C[C@@H]1[C@H](O)[C@@H](C)/C=C/C=C/C=C/C=C/C=C/C=C/C=C/[C@H](O[C@@H]2O[C@H](C)[C@@H](O)[C@H](N)[C@@H]2O)C[C@@H]2O[C@](O)(C[C@@H](O)C[C@@H](O)[C@H](O)CC[C@@H](O)C[C@@H](O)CC(=O)O[C@H]1C)C[C@H](O)[C@H]2C(=O)O` [AMPHOTERICIN B], the Activity [1] was “Active”, the Activity [2] was 31% and the log10cfu [3] was 4.33. The Activity [4] was “inactive”, the Activity [5] was “inactive” and the Activity [6] was “inactive”. For the same molecule, the Time [7] was 7 days, the Activity [8] was 5.26 and the Activity [9] was 23%. For the same molecule, the Activity [10] was “inactive” and the Activity [11] was 50%.
`C[C@@H](c1ncncc1F)[C@](O)(Cn1cncn1)c1ccc(F)cc1F` [VORICONAZOLE] showed a Time [12] greater than 12 days, a Cmax [13] of 2320 ng/mL and a Cmax [14] of 6730 ng/g. For the same molecule, the Activity [15] was 92%, the log10cfu [16] was 4.21 and the Activity [17] was “Active”. For the same molecule, the Activity [18] was “Active”, the Activity [19] was 67% and the Activity [20] was “Non-toxic”. For the same molecule, the Activity [21] was “Active”, the Activity [22] was 5.24 and the Activity [23] was “Non-toxic”.
